Numbered stars: 1 amine (or outer) side, 2 acyl side, 3 side chain; on linkers, the order of the positions; unused ones are H or OH. Bridge positions count the residues as written; N and C are the ends. Square brackets hold non-standard residues; d marks the D form. Peptide text beside a SMILES is read from it. ξ: configuration not given here. Ala(Nα-(CH2)3CO) = C[C@@H](C(=O)[*:2])N(CCCC(=O)[*:3])[*:1]; Ala(Nα-(CH2)3NH) = C[C@@H](C(=O)[*:2])N(CCCN[*:3])[*:1]; Gly(Nα-(CH2)3CO) = O=C(CN(CCCC(=O)[*:3])[*:1])[*:2]; N(2-Aminoethyl)Gly = O=C(CN(CCN[*:3])[*:1])[*:2]; ξY = NC(Cc1ccc(O)cc1)C(=O)O
B1: OSM: oncostatine M, cytokine that shares the gp130 signal transducer (protein, UniProt P13725 26-221, looked up)
Oncostatin-M: AAIGSCSKEYRVLLGQLQKQTDLMQDTSRLLDPYIRIQGLDVPKLREHCRERPGAFPSEETLRGLGRRGFLQTLNATLGCVLHRLADLEQRLPKAQDLERSGLNIEDLEKLQMARPNILGLRNNIYCMAQLLDNSDTAEPTKAGRGASQPPTPTPASDAFQRKLEGCRFLHGYHRFMHSVGRVFSKWGESPNRSRR

Tests used:
B16.F10.9 melanoma cells = details: for B16F10.9 active at: theoretical crude concentration, MPS peptides
Text: The F10.9 sub-line of B16 (murine melanoma) expresses gp130 but not IL-6R. Addition of human IL-6 and human IL-6R, or a chimera of IL-6/IL-6R results in differentiation which is associated with growth arrest of the cells. Inhibition of IL-6 results in continued growth. Since the end point of this assay is cell growth rather than cell death, this assay system was used primarily in order to differentiate between suspected toxic effects observed on B9 or T1165 cells, and true inhibition of IL-6 activity.
Evaluation of the results in this assay is possible using two methods. One method uses vital dyes for monitoring cell growth. The second method comprises visual observation of the cell morphology and establishing a cut off point based on the following observations:
Cells which are not treated with IL-6 create a monolayer that covers almost all the surface area. Treatment with IL-6 causes growth arrest and a morphological change: the cells become very narrow and elongated as compared to the more spread out shape of the non-treated cells.
Peptides were added to B16.F10.9 melanoma cells in the presence of 200 ng/ml IL-6 and 125 ng/ml sIL-6R. Incubation for three days.

[1] = tested on: TF1 cells maintained with IL-6; assay: Bioassay using TF1 cells maintained with IL-6; type: cell-based, human; parameters: TF1: unit not given here; details: for TF1: MPS crude peptides, Table 6
Text: TF1 cells (human erythroleukemia) cells require IL-6 for growth and thus inhibition of IL-6 bioactivity results in cell death, similar to T1165 cells. The origin of all relevant molecules is human.
The problem associated with toxicity (false positive results), could be overcome in the TF1 based assay since these cells can be induced by additional cytokines which are unrelated to IL-6 (not using the gp130 signal transducer). It, is possible to induce the cells to grow with IL-6 and with additional cytokine e.g. GM-CSF. Specific inhibition of IL-6 bioactivity is therefore expected to register only in cells induced by IL-6 and not with GM-CSF. […] Assay procedure is based on the procedure described in Fourcin et al. (ibid). The amount of viable cells at the end of the assay is determined by staining the cells with WST reagent as well as by measuring thymidine corporation (^3H-T).
The libraries were screened for binding of soluble IL-6. The information obtained was used for synthesis of backbone cyclic peptides in MPS format. Analyses for biological activity were performed on the TF1 human cell line.
Since the endpoint of the bioassay used is cell death, there is a need to check the specificity of the killing action, and to examine whether the cell death is due to inhibition of the IL-6 signaling pathway. The peptide analogs were therefore analyzed for their ability to induce non-specific cell death when the same cells were maintained with GM-CSF (instead of IL-6) as growth factor.

[2] = target: leukocyte inhibitory factor receptor (LIF-R); assay: cell-based or functional assay
A375 cells = assay: Bioassay using A375 cells, cytokines other than IL-6; type: cell-based, human; details: maximal inhibitory activity of IL-6 on A375 cells = 100%
Text: The A375 are human melanoma cells. IL-6 induces differentiation of A375 cells which is associated with growth arrest similar to the phenomenon observed with the B16F10.9 murine melanoma cells. Thus, inhibition of IL-6 results in continued growth of the cells which is easily quantifiable. In such case toxicity of peptides would register as a false negative rather than false positive. This conditions is preferable during screening process. Second, since these are human cells, the molecules involved in the bio-response, i.e. IL-6, IL-6R and gp130 are all of human origin thus ensuring authenticity of the tested peptide bioactivity. Another advantage of the A375 cells is their ability to be induced by other cytokines that share the gp130 signal transducer, i.e. leukemia inhibitory factor (LIF) and oncostatine M (OSM). […] The availability of this assay system, allows us to test, the specificity of our IL-6 inhibitory peptides vs. other cytokines of the family, in an array of assays all using a single cell line. Assay performance is described in Savino et al. (ibid).

[3] = tested on: IL-6 mediated acute-phase response; assay: IL-6 mediated acute-phase response (turpentine model); type: in vivo, mice; details: mice, turpentine, 1 or 10 mg/kg of peptide
Text: The objective was to establish a simple first-line in-vivo model, for testing the activity of IL-6 inhibitors. The turpentine model was chosen based on the principal role that IL-6 plays in this inflammatory response.
Systemic and localized inflammation elicit a general reaction in the organism, known as the acute phase response, which includes fever, loss of body weight, hypoglycemia, and changes in the serum levels of several plasma proteins produced by the liver. IL-6 is an important mediator of the acute-phase reaction (see Heinrich et.al., Biochemistry J. 1 265:621, 1990 for a comprehensive review), together with IL-1 and TNF-α. It has been shown previously that sterile tissue damage caused by injection of turpentine induces an acute-phase reaction, and that IL-6 is an essential mediator of this response (Rokita et.al., Cytokine 5:454, 1993).
IL-6 knock-out (-/-) and matched wild-type (C57/Black; CB) mice were used. Sterile tissue damage was induced by subcutaneous injection of turpentine, 0.1 ml, into both hind limbs. IL-6 was determined in the serum by ELISA (QuantikineM, R&D). For liver acute-phase proteins, Fibrinogen was determined in citrated plasma, by the calcium method.
PTR 5045 (SEQ ID NO:75) was tested in this model in compare to the non-relevant control peptide PTR 4041 (SEQ ID NO:33) (Lys-GlyC2-Leu-Ile-Gln-Leu-Phe-GlyN3-Lys-Lys-NH2).

Molecule	B16F10.9 active at (B16.F10.9 melanoma cells)	TF1 [1]	other results
CC(C)C[C@@H]1NC(=O)[C@H](C)N(C(=O)[C@@H](Cc2ccccc2)NC(=O)[C@@H](CCCNC(=N)N)NC(=O)[C@H](CCCCN)NC(=O)[C@H](CCCNC(=N)N)NC(=O)[C@@H](N)Cc2ccc(O)cc2)CCCC(=O)NCCCN([C@@H](C)C(N)=O)C(=O)C(Cc2ccc(O)cc2)NC(=O)[C@@H](CCCNC(=N)N)NC1=O (stereo partly drawn) [Tyr-Arg-Lys-(D)Arg-(D)Phe-AlaC3-Leu-(D)Arg-BTyr-AlaN3] (H-YRK[dR][dF][Ala(Nα-(CH2)3CO)]L[dR][ξY][Ala(Nα-(CH2)3NH)]-NH2; lactam 6-10)	47 µM	19	
CC(C)C[C@@H]1NC(=O)[C@H](C)N(C(=O)[C@@H](Cc2ccccc2)NC(=O)[C@@H](CCCNC(=N)N)NC(=O)[C@H](CCCCN)NC(=O)[C@H](CCCNC(=N)N)NC(=O)[C@H](N)CCCCN)CCCC(=O)NCCCN([C@@H](C)C(N)=O)C(=O)[C@H](Cc2ccc(O)cc2)NC(=O)[C@H](CCCNC(=N)N)NC1=O [(D)Lys-Arg-Lys-(D)Arg-(D)Phe-AlaC3-Leu-Arg-Tyr-AlaN3] (H-[dK]RK[dR][dF][Ala(Nα-(CH2)3CO)]LRY[Ala(Nα-(CH2)3NH)]-NH2; lactam 6-10)	62 µM	13	
C[C@@H](C(N)=O)N1CCCNC(=O)CCCN(C(=O)[C@@H](Cc2ccccc2)NC(=O)[C@H](CCCNC(=N)N)NC(=O)[C@H](CCCCN)NC(=O)[C@H](CCCNC(=N)N)NC(=O)[C@H](N)CCCCN)[C@@H](C)C(=O)N[C@@H](CCCCN)C(=O)N[C@H](CCCNC(=N)N)C(=O)N[C@H](Cc2ccc(O)cc2)C1=O [(D)Lys-Arg-Lys-Arg-(D)Phe-AlaC3-Lys-(D)Arg-(D)Tyr-AlaN3] (H-[dK]RKR[dF][Ala(Nα-(CH2)3CO)]K[dR][dY][Ala(Nα-(CH2)3NH)]-NH2; lactam 6-10)	62 µM	17	
CC(C)C[C@@H]1NC(=O)[C@H](C)N(C(=O)[C@@H](Cc2ccccc2)NC(=O)[C@H](CCCNC(=N)N)NC(=O)[C@H](CCCCN)NC(=O)[C@H](CCCNC(=N)N)NC(=O)[C@H](N)CCCCN)CCCC(=O)NCCCN([C@@H](C)C(N)=O)C(=O)[C@@H](Cc2ccc(O)cc2)NC(=O)[C@H](CCCNC(=N)N)NC1=O [(D)Lys-Arg-Lys-Arg-(D)Phe-AlaC3-Leu-Arg-(D)Tyr-AlaN3] (H-[dK]RKR[dF][Ala(Nα-(CH2)3CO)]LR[dY][Ala(Nα-(CH2)3NH)]-NH2; lactam 6-10)	62 µM	23	
leukemia inhibitory factor (LIF) (ligand)			% Inhibition (relative to IL-6) of A375 cells, LIF + LIFR at 10 ng/ml [2]: 45%
C[C@@H](C(N)=O)N1CCCNC(=O)CCCN(C(=O)[C@@H](Cc2ccccc2)NC(=O)[C@H](CCCNC(=N)N)NC(=O)[C@H](CCCCN)NC(=O)[C@H](CCCNC(=N)N)NC(=O)[C@H](N)CCCCN)[C@@H](C)C(=O)N[C@@H](CCCCN)C(=O)N[C@@H](CCCNC(=N)N)C(=O)N[C@@H](Cc2ccc(O)cc2)C1=O [(D)Lys-Arg-Lys-Arg-(D)Phe-AlaC3-Lys-Arg-Tyr-AlaN3] (H-[dK]RKR[dF][Ala(Nα-(CH2)3CO)]KRY[Ala(Nα-(CH2)3NH)]-NH2; lactam 6-10)	62 µM	55	
Lys-Arg-Leu-(D)Arg-(D)Phe-AlaC3-Lys-Arg-BTyr-AlaN3	not active	22	
C[C@@H](C(N)=O)N1CCCNC(=O)CCCN(C(=O)[C@H](Cc2ccccc2)NC(=O)[C@H](CCCNC(=N)N)NC(=O)[C@H](CCCCN)NC(=O)[C@H](CCCNC(=N)N)NC(=O)[C@@H](N)CCCCN)[C@@H](C)C(=O)N[C@@H](CCCCN)C(=O)N[C@H](CCCNC(=N)N)C(=O)NC(Cc2ccc(O)cc2)C1=O (stereo partly drawn) [Lys-Arg-Lys-Arg-Phe-AlaC3-Lys-(D)Arg-BTyr-AlaN3] (H-KRKRF[Ala(Nα-(CH2)3CO)]K[dR][ξY][Ala(Nα-(CH2)3NH)]-NH2; lactam 6-10)	62 µM	21	
CC(C)C[C@@H]1NC(=O)[C@H](C)N(C(=O)[C@@H](Cc2ccccc2)NC(=O)[C@@H](CCCNC(=N)N)NC(=O)[C@H](CCCCN)NC(=O)[C@H](CCCNC(=N)N)NC(=O)[C@@H](N)Cc2c[nH]c3ccccc23)CCCC(=O)NCCCN([C@@H](C)C(N)=O)C(=O)C(Cc2ccc(O)cc2)NC(=O)[C@H](CCCNC(=N)N)NC1=O (stereo partly drawn) [Trp-Arg-Lys-(D)Arg-(D)Phe-AlaC3-Leu-Arg-BTyr-AlaN3] (H-WRK[dR][dF][Ala(Nα-(CH2)3CO)]LR[ξY][Ala(Nα-(CH2)3NH)]-NH2; lactam 6-10)	<12 µM	41	
(D)Lys-Arg-Lys-Arg-Phe-AlaC3-Leu-Arg-(D)Tyr-AlaN3	not active	25	
(D)Tyr-Arg-Lys-Arg-Phe-AlaC3-Lys-(D)Arg-(D)Tyr-AlaN3	not active	22	
CC(C)C[C@@H]1NC(=O)[C@H](C)N(C(=O)[C@H](Cc2ccccc2)NC(=O)[C@@H](CCCNC(=N)N)NC(=O)[C@H](CCCCN)NC(=O)[C@H](CCCNC(=N)N)NC(=O)[C@@H](N)CCCCN)CCCC(=O)NCCCN([C@@H](C)C(N)=O)C(=O)C(Cc2ccc(O)cc2)NC(=O)[C@H](CCCNC(=N)N)NC1=O (stereo partly drawn) [Lys-Arg-Lys-(D)Arg-Phe-AlaC3-Leu-Arg-BTyr-AlaN3] (H-KRK[dR]F[Ala(Nα-(CH2)3CO)]LR[ξY][Ala(Nα-(CH2)3NH)]-NH2; lactam 6-10)	<12 µM	85	
LIF: leukemia inhibitory factor, cytokine that shares the gp130 signal transducer			% Inhibition (relative to IL-6) (A375 cells; cytokine 1 ng/ml): 1%; % Inhibition (relative to IL-6) (A375 cells; cytokine 10 ng/ml): 2%
(D)Lys-Arg-Lys-Arg-Phe-AlaC3-(D)Leu-(D)Arg-Tyr-AlaN3	not active	27	
CC(C)C[C@@H]1NC(=O)CN(C(=O)[C@H](Cc2ccccc2)NC(=O)[C@H](CCCNC(=N)N)NC(=O)[C@H](CC(C)C)NC(=O)[C@H](CCCNC(=N)N)NC(=O)[C@@H](N)Cc2ccc(O)cc2)CCCC(=O)NCCN(CC(N)=O)C(=O)[C@H](Cc2ccc(O)cc2)NC(=O)[C@H](CCCNC(=N)N)NC1=O [PTR 5005, Tyr-Arg-Leu-Arg-Phe-GlyC3-Leu-Arg-Tyr-GlyN2] (H-YRLRF[Gly(Nα-(CH2)3CO)]LRY[N(2-Aminoethyl)Gly]-NH2; lactam 6-10)			IC50 in the B16F10.9 cell assay (B16.F10.9 melanoma cells): around 10 μ/ml; activity on TF1 cells ([1]; in words): appears to be active
Lys-GlyC2-Leu-Ile-Gln-Leu-Phe-GlyN3-Lys-Lys-NH2 (KGLIQLFGKK; not fully specified; backbone cyclization, C-amide; listed as Homo sapiens) [PTR 4041, non-relevant control peptide, reference compound]			concentration that fully blocks IL-6 activity (B16.F10.9 melanoma cells; 200 ng/ml IL-6 and 125 ng/ml sIL-6R, three days, FIG. 2): not active; Mean weight loss % [3]: −7.3%; Mean weight loss grams [3]: −2.51 grams
B1			% Inhibition (relative to IL-6) (A375 cells; cytokine 1 ng/ml): 94%; % Inhibition (relative to IL-6) (A375 cells; cytokine 10 ng/ml): 141%

From patent US6841533B1, “Conformationally constrained backbone cyclized interleukin-6 antagonists” (Peptor Limited, priority 1995, dated 2005)
